From PubChem BioAssay AID220 (DTP/NCI, 2004) come the findings set out here.

The subject of the experiment is CD8F1 mice, subcutaneous mammary adenocarcinoma, T/C%. Put plainly: NCI In Vivo Anticancer Drug Screen. Data for tumor model Mammary Adenocarcinoma CD8F1 (subcutaneous) in CD8F1. As to conditions: higher = larger tumour. The gist of the method: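 Ratio of treated to vehicle-control outcome, based on either survival or tumor size, in mice bearing transplantable tumors given the test compound.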

Setting [1] is: endpoint: median tumor weight (est.), dose: 12.5 mg/kg/injection, schedule: Q07DX005 (ip), vehicle: suspension in saline.
Where [2] appears, read: endpoint: median tumor weight (est.), dose: 25.0 mg/kg/injection, schedule: Q07DX005 (ip), vehicle: suspension in saline.
The mark [3] stands for this setting: endpoint: median tumor weight (est.), dose: 50.0 mg/kg/injection, schedule: Q07DX005 (ip), vehicle: suspension in saline.
Setting [4] is: endpoint: median tumor weight (est.), dose: 100.0 mg/kg/injection, schedule: Q07DX005 (ip), vehicle: suspension in saline.
[5] abbreviates: endpoint: median tumor weight change, dose: 62.5 mg/kg/injection, schedule: Q01DX001 (ip), vehicle: saline with Tween-80.
The mark [6] stands for this setting: endpoint: median tumor weight change, dose: 125.0 mg/kg/injection, schedule: Q01DX001 (ip), vehicle: saline with Tween-80.
[7] abbreviates: endpoint: median tumor weight change, dose: 250.0 mg/kg/injection, schedule: Q01DX001 (ip), vehicle: saline with Tween-80.

Several values for one entry are separate records, joined by “and”; a condition that tells them apart may be missing. Identical values can stand only once. Inconclusive results are not listed.

`NC(=O)c1csc(C2OC(CO)C(O)C2O)n1` (configuration not stated): the T/C (endpoint: median tumor weight change, dose: 125.0 mg/kg/injection, schedule: Q01DX001 (ip), vehicle: water) is 87 % of control and 96 % of control; the T/C (endpoint: median tumor weight change, dose: 500.0 mg/kg/injection, schedule: Q01DX001 (ip), vehicle: water) is 11 % of control and 35 % of control; the T/C (endpoint: median tumor weight change, dose: 2000.0 mg/kg/injection, schedule: Q01DX001 (ip), vehicle: water) was 55 % of control.
In the case of `COCCCNC1=C(C#N)C(=O)NC(c2cccc([N+](=O)[O-])c2)S1` (configuration not stated), the T/C is 95 % of control and 110 % of control (endpoint: median tumor weight change, dose: 1000.0 mg/kg/injection, schedule: Q01DX001 (ip), vehicle: saline with Tween-80); 79 % of control (endpoint: median tumor weight change, dose: 2000.0 mg/kg/injection, schedule: Q01DX001 (ip), vehicle: saline with Tween-80).
For `O=C(CO)c1ccc([N+](=O)[O-])cc1`, the T/C runs as follows: (endpoint: median tumor weight (est.), dose: 6.25 mg/kg/injection, schedule: Q07DX005 (ip), vehicle: saline with Tween-80) 117 % of control; (endpoint: median tumor weight (est.), dose: 12.5 mg/kg/injection, schedule: Q07DX005 (ip), vehicle: saline with Tween-80) 112 % of control; (endpoint: median tumor weight (est.), dose: 25.0 mg/kg/injection, schedule: Q07DX005 (ip), vehicle: saline with Tween-80) 91 % of control; (endpoint: median tumor weight (est.), dose: 50.0 mg/kg/injection, schedule: Q07DX005 (ip), vehicle: saline with Tween-80) 118 % of control; (endpoint: median tumor weight (est.), dose: 200.0 mg/kg/injection, schedule: Q07DX005 (ip), vehicle: saline with Tween-80) 86 % of control.
On to `Cn1c(=O)[nH]c2nncnc2c1=O`, for which the T/C (endpoint: median tumor weight change, dose: 15.62 mg/kg/injection, schedule: Q01DX001 (ip), vehicle: other) is 89 % of control; the T/C (endpoint: median tumor weight change, dose: 31.25 mg/kg/injection, schedule: Q01DX001 (ip), vehicle: other) was 88 % of control; the T/C (endpoint: median tumor weight change, dose: 62.5 mg/kg/injection, schedule: Q01DX001 (ip), vehicle: other) is 57 % of control.
`CCC1CC2CN(CCc3c([nH]c4ccccc34)C(C(=O)OC)(c3cc4c(cc3OC)N(C)C3C(O)(C(=O)OC)C(OC(C)=O)C5(CC)C=CCN6CCC43C65)C2)C1` (configuration not stated): the T/C by setting is: (endpoint: median tumor weight change, dose: 0.31 mg/kg/injection, schedule: Q01DX001 (ip), vehicle: suspension in saline) 99 % of control; (endpoint: median tumor weight change, dose: 0.62 mg/kg/injection, schedule: Q01DX001 (ip), vehicle: saline) 165 % of control; (endpoint: median tumor weight change, dose: 0.62 mg/kg/injection, schedule: Q01DX001 (ip), vehicle: suspension in saline) 59 % of control; (endpoint: median tumor weight change, dose: 1.25 mg/kg/injection, schedule: Q01DX001 (ip), vehicle: saline) 110 % of control; (endpoint: median tumor weight change, dose: 1.25 mg/kg/injection, schedule: Q01DX001 (ip), vehicle: suspension in saline) 105 % of control; (endpoint: median tumor weight change, dose: 2.5 mg/kg/injection, schedule: Q01DX001 (ip), vehicle: suspension in saline) 88 % of control. Besides, the T/C reads like this: (endpoint: median tumor weight change, dose: 5.0 mg/kg/injection, schedule: Q01DX001 (ip), vehicle: saline) 184 % of control; (endpoint: median tumor weight change, dose: 5.0 mg/kg/injection, schedule: Q01DX001 (ip), vehicle: suspension in saline) 109 % of control; (endpoint: median tumor weight change, dose: 10.0 mg/kg/injection, schedule: Q01DX001 (ip), vehicle: saline) 99 % of control; (endpoint: median tumor weight change, dose: 10.0 mg/kg/injection, schedule: Q01DX001 (ip), vehicle: suspension in saline) 70 % of control.
With `O=c1[nH]c2c(ccc3cnccc32)c2c1CCC2`, the T/C by setting is: (endpoint: median tumor weight (est.), dose: 6.25 mg/kg/injection, schedule: Q07DX005 (ip), vehicle: saline) 119 % of control; under setting [1], 80 % of control; (endpoint: median tumor weight (est.), dose: 25.0 mg/kg/injection, schedule: Q07DX005 (ip), vehicle: saline) 162 % of control; under setting [2], 80 % of control; (endpoint: median tumor weight (est.), dose: 50.0 mg/kg/injection, schedule: Q07DX005 (ip), vehicle: saline) 114 % of control; under setting [3], 59 % of control. The T/C is 164 % of control (endpoint: median tumor weight (est.), dose: 100.0 mg/kg/injection, schedule: Q07DX005 (ip), vehicle: saline) and 77 % of control under setting [4].
With `COc1cccc2c1C(=O)c1c(O)c3c(c(O)c1C2=O)CC(O)(C(=O)CO)CC3OC1CC(N)C(O)C(C)O1` (configuration not stated), the T/C was 37 % of control (endpoint: median tumor weight (est.), dose: 12.0 mg/kg/injection, schedule: Q07DX006 (ip), vehicle: saline); 33 % of control (endpoint: median tumor weight (est.), dose: 20.0 mg/kg/injection, schedule: Q07DX005 (ip), vehicle: water); 18 % of control (endpoint: median tumor weight (est.), dose: 24.0 mg/kg/injection, schedule: Q07DX006 (ip), vehicle: saline); 33 % of control (endpoint: median tumor weight (est.), dose: 30.0 mg/kg/injection, schedule: Q07DX005 (ip), vehicle: saline); 11 % of control and 22 % of control (endpoint: median tumor weight (est.), dose: 30.0 mg/kg/injection, schedule: Q07DX005 (ip), vehicle: water); 1 % of control and 11 % of control (endpoint: median tumor weight (est.), dose: 45.0 mg/kg/injection, schedule: Q07DX005 (ip), vehicle: water). The T/C (endpoint: median tumor weight (est.), dose: 48.0 mg/kg/injection, schedule: Q07DX006 (ip), vehicle: saline) was 1 % of control; the T/C (endpoint: median tumor weight (est.), dose: 60.0 mg/kg/injection, schedule: Q07DX005 (ip), vehicle: saline) was 14 % of control and 18 % of control.
Take `Cc1ccc(C(=O)[O][Hg][CH2]C2COC([CH2][Hg][O]C(=O)c3ccc(C)cc3)CO2)cc1` (configuration not stated): the T/C reads like this: (endpoint: median tumor weight (est.), dose: 6.25 mg/kg/injection, schedule: Q07DX005 (ip), vehicle: Klucel (hydroxypropylcellulose) (HPC)) 60 % of control; (endpoint: median tumor weight (est.), dose: 12.5 mg/kg/injection, schedule: Q07DX005 (ip), vehicle: Klucel (hydroxypropylcellulose) (HPC)) 72 % of control; (endpoint: median tumor weight (est.), dose: 25.0 mg/kg/injection, schedule: Q07DX005 (ip), vehicle: Klucel (hydroxypropylcellulose) (HPC)) 117 % of control; (endpoint: median tumor weight (est.), dose: 50.0 mg/kg/injection, schedule: Q07DX005 (ip), vehicle: Klucel (hydroxypropylcellulose) (HPC)) 57 % of control; (endpoint: median tumor weight (est.), dose: 100.0 mg/kg/injection, schedule: Q07DX005 (ip), vehicle: Klucel (hydroxypropylcellulose) (HPC)) 162 % of control.
Consider `Cc1cc2cc3cc(C)c(N)cc3nc2cc1N`, for which the T/C (endpoint: median tumor weight change, dose: 31.25 mg/kg/injection, schedule: Q01DX001 (ip), vehicle: saline with Tween-80) is 59 % of control; the T/C under setting [5] was 72 % of control; the T/C under setting [6] is 42 % of control; the T/C under setting [7] is 36 % of control.
`O=C(Nc1ccccc1C(=O)O)c1cc([N+](=O)[O-])cc([N+](=O)[O-])c1`: the T/C was 192 % of control under setting [6] and 117 % of control under setting [7].
Consider `O=Cc1ccc(O)c(O)c1`, for which the T/C under setting [4] is 160 % of control.
As for `O=C(C/C(=N\C(=S)Nc1cc(C(F)(F)F)ccc1Cl)NO)N1CCCC1`, the T/C by setting is: under setting [5], 76 % of control; under setting [6], 83 % of control and 90 % of control.
Regarding `O=CC(S)CO` (configuration not stated), the T/C under setting [1] was 165 % of control; the T/C under setting [2] is 231 % of control and 88 % of control; the T/C under setting [3] was 112 % of control; the T/C (endpoint: median tumor weight (est.), dose: 200.0 mg/kg/injection, schedule: Q07DX005 (ip), vehicle: suspension in saline) is 102 % of control.
